Key:
[1] = system: presbyopia; experiment: Study in presbyopia patients over 40 years old, non-dominant eye treated, single daily application; format: in vivo, human; conditions: bromfenac combined with pilocarpine
Description: The study carried out by the present invention is based on a composition distinct from Dr. Benotzzi's, as well as on other selection criteria as regards patients, exclusively including patients over 40 years old with evident signs of clear presbyopia with a refractive defect among −0.50 of myopia and +0.75 of hyperopia with a maximum astigmatism of −0.75, in addition to their corresponding age-based presbyopia. Here, only those patients with the following characteristics were considered ideal candidates: an ACD (Anterior Chamber […] of the eye) greater than 2.5 mm, a White-to-White (horizontal diameter) greater than 11.4 mm and a value of photopic pupils higher than 3 mm. and of scotopic pupils lower than 6.5 mm, plus a correct convergence and binocularity and a density of the eye crystal lower than 25 measured with Pentacam. Additionally, only the non-dominant eye has been always treated, a situation that is not reflected in the studies of Dr. Benozzi, although we have evidence that recommends the use in both eyes. […]

[2] = system: prostaglandin synthesis at the level of ciliary body and the iris; conditions: in vitro; cited from earlier work
[3] = cited from earlier work
[4] = after instillation on the ocular surface

| SMILES | parasympathomimetic action of pilocarpine ([1]; compared with diclofenac of Dr. Benozzi's formula) | depth of focus of the treated eye ([1]; non-dominant eye treated) | inhibition of prostaglandin synthesis [2] | concentrations in aqueous humor remained [3, 4] | measurable levels in the major ocular tissues [3, 4] [h] | passage through the human cornea ([3]; human cornea) |
| --- | --- | --- | --- | --- | --- | --- |
| Nc1c(CC(=O)O)cccc1C(=O)c1ccc(Br)cc1 [bromfenac] | significantly extends | significant increase | inhibits prostaglandin synthesis | – | – | – |
| Nc1c(CC(=O)O)cccc1C(=O)c1ccc(Br)cc1 [bromfenac sodium sesquihydrate] | – | – | – | over 12 hours | ≤ 24 | efficiently pass through the human cornea |

From patent US9987254B2, “Ophthalmic composition for correcting presbyopia” (Eurocanarias Oftalmológica, S.L., priority 2013, dated 2018)
